Entries after “also recorded” stand apart in the source; their conditions may differ. Read-outs that look alike come from different tables or passages of the source.
Assays:
[1] = system: mice; parameters: method as in PMID 30348770; conditions: cited from earlier work
[2] = system: mice; parameters: method as in PMID 30348770; conditions: cited from earlier work; remark: listed apart in the source
[3] = system: mice; conditions: cited from earlier work
[4] = system: Ames test; test: Ames test; type: cell-based; conditions: in vitro
[5] = system: micronucleus test; test: micronucleus test; type: cell-based; conditions: in vitro
[6] = biological target: hERG channels (Homo sapiens, UniProt Q12809); test: hERG channel activity; conditions: in vitro
Sequence of hERG channels (Q12809 whole entry): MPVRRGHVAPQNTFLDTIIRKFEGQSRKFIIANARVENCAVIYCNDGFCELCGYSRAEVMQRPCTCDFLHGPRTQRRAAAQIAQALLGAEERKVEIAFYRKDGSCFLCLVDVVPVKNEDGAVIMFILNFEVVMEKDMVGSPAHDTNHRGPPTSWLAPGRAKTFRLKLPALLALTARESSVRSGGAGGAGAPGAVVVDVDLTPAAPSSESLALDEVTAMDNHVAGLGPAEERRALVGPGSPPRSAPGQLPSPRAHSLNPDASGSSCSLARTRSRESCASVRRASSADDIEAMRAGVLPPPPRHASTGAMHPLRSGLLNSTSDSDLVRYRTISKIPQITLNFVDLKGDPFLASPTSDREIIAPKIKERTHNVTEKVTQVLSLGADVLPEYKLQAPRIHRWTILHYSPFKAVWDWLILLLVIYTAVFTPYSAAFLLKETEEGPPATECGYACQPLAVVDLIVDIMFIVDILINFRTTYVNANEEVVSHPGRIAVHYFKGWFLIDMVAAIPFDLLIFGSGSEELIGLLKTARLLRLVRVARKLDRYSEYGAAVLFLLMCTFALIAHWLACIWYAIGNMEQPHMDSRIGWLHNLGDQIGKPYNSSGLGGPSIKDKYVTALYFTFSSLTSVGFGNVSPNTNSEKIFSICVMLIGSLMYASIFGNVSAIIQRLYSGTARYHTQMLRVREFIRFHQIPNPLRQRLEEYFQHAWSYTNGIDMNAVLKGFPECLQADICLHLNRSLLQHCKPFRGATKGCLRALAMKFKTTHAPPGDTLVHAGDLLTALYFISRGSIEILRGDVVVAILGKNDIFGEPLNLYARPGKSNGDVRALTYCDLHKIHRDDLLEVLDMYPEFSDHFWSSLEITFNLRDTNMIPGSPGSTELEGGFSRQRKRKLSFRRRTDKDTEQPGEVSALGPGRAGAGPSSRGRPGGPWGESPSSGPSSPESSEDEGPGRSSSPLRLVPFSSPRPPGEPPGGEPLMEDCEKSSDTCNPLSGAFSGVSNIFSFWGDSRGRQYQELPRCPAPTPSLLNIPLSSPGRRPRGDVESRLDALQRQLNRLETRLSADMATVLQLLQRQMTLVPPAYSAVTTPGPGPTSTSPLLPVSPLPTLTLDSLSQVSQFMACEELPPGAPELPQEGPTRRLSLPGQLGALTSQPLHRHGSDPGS

[7] = Solubility in dosing vehicles; type: physicochemical; conditions: read-out: soluble at concentrations up to
Protocol: Pentilludin powder was >97.5% pure following synthesis and when reanalyzed (Certificate of Analysis, GLP) 1 ½ and 2 ½ years after synthesis. Pentilludin was soluble in 6.82% Captisol in 60:40 PEG600/water (the vehicle used for initial toxicology experiments) and in PEG600 (the vehicle used for self-administration and Good Laboratory Practices testing) at concentrations up to 100 mg/ml with gentle heating.

[8] = Plasma pentilludin levels after acute 20 mg/kg iv or po administration; type: in vivo; conditions: rat
Protocol: Proteins in 50 μL plasma collected with K2EDTA as anti-coagulant were precipitated by adding 5 μL of acetonitrile with 0.5% v/v ascorbate, 200 μL of acetonitrile containing 20 ng/ml tolbutamide internal standard with 0.5% ascorbate was added, the mixture was vortexed for 1 min, centrifuged @ 4000 rpm for 15 mins and peaks in 8 μL of the supernatant were identified using an AB Sciex Triple Quad 5500 LC-MS/MS (electrospray, negative ions, Analyst 1.6.3 software) and a Waters Acquity Ultra Performance LC System with 50 × 2.1 mm Acuity UPLC Beh C18 1.7 μm column eluted for 2.5 min @ 22°C @ 0.5 ml/min with Mobile Phase A (5mM NH4OAc in water with 0.05% formic acid) and mobile phase B (acetonitrile with 0.1% formic acid) with changes in % A as follows: 60, 10, 5, and 60. Standards were quantitated at concentrations ranging from 1– 2000 ng/mL.

[9] = system: rats trained to self-administer amphetamine iv; test: Amphetamine self-administration; type: in vivo; conditions: rat
Protocol: (§1) Young adult Sprague-Dawley rats (Charles River Laboratories, Raleigh, NC, USA) were singly housed on a reverse 12:12 day night cycle and tested during their active (dark) phase in studies approved by the Duke Institutional Animal Care and Use Committee. Rats had catheters surgically implanted in their jugular veins to provide access for self-administration by IV infusion. Briefly, rats were anesthetized with i.p. injections of ketamine (Fort Dodge Animal Health, Fort Dodge, IA, USA; […]) with the addition of Dexdomitor (Pfizer, New York, NY, USA; 0.15 mg/kg) which is a sedative and analgesic agent. Before surgery, ketoprofen (5 mg/kg, s.c.) was administered to reduce post-operative pain and inflammation. A plastic SoloPort was attached intraoperatively to a polyurethane catheter and inserted into a subcutaneous interscapular pocket and sutured to underlying fascia.
(§2) The day following surgery, the rats began self-administration sessions with amphetamine (0.1 mg/kg/infusion, iv) or remifentanil (0.3 μg/kg/infusion, iv) as reinforcers. […] Each infusion was followed by a 20-sec timeout in which the house light goes on and cue light goes out. Responses were recorded but not reinforced during this interval. […] There were five sessions of training for self-administration before the onset of pentilludin drug treatment sessions. All of the animals had the same number of training sessions to provide all with equal testing history. Each infusion session lasted for one hour. Animals were tested not more than once/day between 9 AM and 4 PM.
(§3) At the end of each study catheter patency was confirmed by assessing sedation following methohexital (brevital) administration through the catheter. […] Self-administration results, differences from baseline levels, were assessed for statistical for significance with analysis of variance. To control for baseline differences in self-administration, the self-administration with pentilludin or vehicle treatment was analyzed as a difference from each animal’s self-administration on the last two sessions of baseline training. […]

[10] = system: rats trained to self-administer remifentanil iv; test: Remifentanil self-administration; type: in vivo; conditions: rat
Protocol: as §1, §2, §3

[11] = system: rats; test: Lever pressing for self-administration of food pellets; type: in vivo; conditions: rat, eight sessions of testing
[12] = system: dogs; test: Two week oral dosing in dogs, kidney pathology; type: in vivo, dog; conditions: 15 mg/kg/d po for two weeks
[13] = Metabolism in rat liver microsomes; type: in vitro ADME
[14] = Metabolism in human liver microsomes; type: in vitro ADME
[15] = Metabolism in rat plasma; type: in vitro ADME
[16] = Metabolism in human plasma; type: in vitro ADME
[17] = system: recombinant paraoxonase; test: Interaction with recombinant paraoxonase; type: in vitro ADME; conditions: initial work
[18] = biological target: receptor type protein tyrosine phosphatase D (PTPRD); parameters: method as in PMID 34863978; conditions: likely irreversible; read-out: potency in inhibiting PTPRD's phosphatase; cited from earlier work
[19] = system: receptor type protein tyrosine phosphatase S (PTPRS); parameters: method as in PMID 35636503; conditions: cited from earlier work
[20] = system: receptor type protein tyrosine phosphatase F (PTPRF); parameters: method as in PMID 35636503; conditions: cited from earlier work
[21] = system: receptor type protein tyrosine phosphatase J (PTPRJ); parameters: method as in PMID 35636503; conditions: cited from earlier work
[22] = system: nonreceptor type protein tyrosine phosphatase 1 (PTPN1/ PTP1B); parameters: method as in PMID 35636503; conditions: cited from earlier work
[23] = system: targets of the NIDA-EUROFINS assays (virtually all targets of currently marketed drugs); parameters: method as in PMID 34863978; conditions: cited from earlier work
[24] = Repeated two week daily oral administration toxicity (observational battery, weight, chemistry, hematology, histopathology); conditions: rat
[25] = 20 mg/kg sc prior to every other session, 20 mg/kg

## CCCCOc1cc2c(c(C=O)c1OC)CC(O)OC2=O (stereo not drawn) [7-BIA]
[1]
  stimulant reward, cocaine conditioned place preference: reduces stimulant reward
[2]
  stimulant reward, cocaine self-administration: reduces stimulant reward
[3]
  toxicity on weeks-long repeated treatments: little evidence for toxicity

## COc1c(OCC2CCCC2)cc2c(c1C=O)CC(O)OC2=O (stereo not drawn) [Pentilludin]
[4]
  activity in Ames test: no in vitro activities
[5]
  activity in micronucleus test: no in vitro activities
[6]
  activity at hERG channels: no in vitro activities
[7]; 6.82% Captisol in 60:40 PEG600/water (dosing vehicle), 6.82% Captisol in 60:40 PEG600/water, gentle heating
  solubility: ≤ 100 mg/mL
[7]; PEG600 (dosing vehicle), PEG600, gentle heating
  solubility: ≤ 100 mg/mL
[8]; plasma, po, 20 mg/kg, data from 0.5 to 4h, read-out: bioavailability for po pentilludin in PEG600
  bioavailability: 15%
[8]; plasma, IV 20.0 mg/kg, 0.08 h
  concentration at 0.08 h: 62200 ng/mL
[8]; plasma, IV 20.0 mg/kg, 0.50 h
  concentration at 0.5 h: 2920 ng/mL
[8]; plasma, IV 20.0 mg/kg, 4.0 h
  concentration at 4 h: 4.98 ng/mL
[8]; plasma, PO 20.0 mg/kg in PEG600, 0.50 h
  concentration at 0.5 h: 449 ng/mL
[8]; plasma, PO 20.0 mg/kg in PEG600, 2.0 h
  concentration at 2 h: 146 ng/mL
[8]; plasma, PO 20.0 mg/kg in PEG600, 4.0 h
  concentration at 4 h: 17.1 ng/mL
[8]; 20 mg/kg
  terminal half-life of plasma pentilludin: between one and two
[8]; acute 20 mg/kg
  signs of gross toxicity: no signs of gross toxicity
[9]; 20 mg/kg sc prior to every other session, 12 sessions
  reduction of amphetamine self-administration overall relative to controls: 6.2 infusions per session
[9]; [25]
  effect on amphetamine self-administration: substantially reduces; also recorded: robustly reduced
[9]; 20 mg/kg sc, last two of 12 sessions
  decrease of amphetamine self-administration from last acquisition sessions: 23%
[10]; [25]
  effect on remifentanil self-administration: more modestly reduces; also recorded: significantly attenuated the increase
[10]; 20 mg/kg sc, 11th and 12th sessions
  smaller increase in remifentanil self-administration relative to vehicle-treated controls: 26.5%
[10]; remifentanil self-administration
  responding on the control lever: did not differ
[11]
  food pellets per one-hour session: 85.6 ± 6.3 food pellets
[12]
  kidney pathology: fail to display any kidney pathology
[13]
  metabolism: only modest metabolism
[14]
  metabolism: only modest metabolism
[15]
  metabolism: robust metabolism
[16]
  metabolism: robust metabolism
[17]
  interaction with recombinant paraoxonase: interacts avidly
[18]
  IC50: 690 nM
[19]
  potency at PTPRS: some potency
[20]
  potency at PTPRF: some potency
[21]
  potency at PTPRJ: less potency
[22]
  potency at PTPN1/ PTP1B: less potency
[23]
  IC50: ≥ 100000 nM
[23]; in vitro
  activity at targets for currently-licensed drugs: no in vitro activities
[3]; daily ≥ 150 mg/kg po
  oral intake and weight: reduce oral intake and lose weight starting on about the 4th day
[3]; pentilludin doses up to 100 mg/kg/d po
  toxicity on weeks-long repeated treatments: little evidence for toxicity
[3]; repeated doses of 100 mg/kg/day
  weight loss: no weight loss
[24]; 150 mg/kg/d
  serum chemistry abnormalities in measures relating to renal function: no serum chemistry abnormalities
[24]; 150 mg/kg/d po two weeks, 150 mg/kg/day
  proteinuria: proteinuria in rats treated with 150 mg/kg/d that recovered within two weeks of the end of pentilludin administration; also recorded: modest and reversible proteinuria
[24]; 50 or 75 mg/kg po daily in PEG600, two weeks
  effects on the observational battery, weight, plasma chemistries or hematological assessments: no significant effects
[24]; daily doses for two weeks, also found with vehicle
  kidney histopathology: basophilic lesions in the kidneys of a number of the rats
[24]; doses up to 100 mg/kg/d
  alterations in serum chemistries related to renal function: None of the rats treated with doses up to 100 mg/kg/d displayed alterations
[24]; doses up to 100 mg/kg/day for two weeks
  behavioral, hematologic or serum chemistry abnormalities: have not been found to display behavioral, hematologic or serum chemistry abnormalities
[24]; good laboratory practices toxicology study, 50 or 75 mg/kg/d po two weeks
  effects on histopathology: no pentilludin-associated effects detected
[24]; good laboratory practices work
  effect on plasma chemistry, hematology and behavioral observation batteries: lack of effect

Source: publication doi:10.1101/2025.07.28.667221, “Pentilludin reduces rat amphetamine and remifentail self-administration with good pharmacologic and toxicologic profiles” (bioRxiv, 2025)
